This assay addresses GST-Bc1-2 (Homo sapiens, UniProt P10415). Kind of assay: Time Resolved-Fluorescence Resonance Energy Transfer (TR-FRET) Bcl-2 binding assay with F-Bak peptide probe. As to conditions: GST-Bcl-2 1 nM, F-Bak probe 100 nM, Tb-anti-GST 1 nM; '<' = below limit of detection; read-out: TR-FRET Bcl-2 Binding Ki.

A word on the Ki: it is the dissociation constant of the complex between target and ligand, obtained from inhibition or displacement.

GST-Bc1-2, sequence (P10415 whole entry): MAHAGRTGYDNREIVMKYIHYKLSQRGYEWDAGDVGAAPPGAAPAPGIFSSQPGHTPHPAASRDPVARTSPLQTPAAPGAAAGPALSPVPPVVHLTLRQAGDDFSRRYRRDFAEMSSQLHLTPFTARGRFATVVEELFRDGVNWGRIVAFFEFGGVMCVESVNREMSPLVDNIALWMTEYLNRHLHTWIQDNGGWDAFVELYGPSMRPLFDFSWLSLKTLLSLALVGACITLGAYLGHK

Turning to `CN1CCC(Nc2ccc(S(=O)(=O)NC(=O)c3ccc(N4CCN(CC5=C(c6ccc(Cl)cc6)CC(C)(C)OC5)CC4)cc3Oc3cnc4[nH]ccc4c3)cc2S(=O)(=O)C(F)(F)F)CC1` [Example 45, 4-(4-{[4-(4-chlorophenyl)-6,6-dimethyl-5,6-dihydro-2H-pyran-3-yl]methyl}piperazin-1-yl)-N-({4-[(1-methylpiperidin-4-yl)amino]-3-[(trifluoromethyl)sulfonyl]phenyl}sulfonyl)-2-(1H-pyrrolo[2,3-b]pyridin-5-yloxy)benzamide], the Ki is under 0.01 nM.

Turning to `CC1(C)CCC(CN2CCN(c3ccc(C(=O)NS(=O)(=O)c4cnc(OCC5CCOCC5)c(C(N)=O)c4)c(Oc4cnc5[nH]ccc5c4)c3)CC2)=C(c2ccc(Cl)cc2)C1` [Example 46, 5-({[4-(4-{[2-(4-chlorophenyl)-4,4-dimethylcyclohex-1-en-1-yl]methyl}piperazin-1-yl)-2-(1H-pyrrolo[2,3-b]pyridin-5-yloxy)benzoyl]amino}sulfonyl)-2-(tetrahydro-2H-pyran-4-ylmethoxy)nicotinamide], the Ki was 0.935 nM.

On to `CN1CCC(COc2ncc(S(=O)(=O)NC(=O)c3ccc(N4CCN(CC5=C(c6ccc(Cl)cc6)CC(C)(C)CC5)CC4)cc3Oc3cnc4[nH]ccc4c3)cc2Br)CC1` [Example 47, N-({5-bromo-6-[(1-methylpiperidin-4-yl)methoxy]pyridin-3-yl}sulfonyl)-4-(4-{[2-(4-chlorophenyl)-4,4-dimethylcyclohex-1-en-1-yl]methyl}piperazin-1-yl)-2-(1H-pyrrolo[2,3-b]pyridin-5-yloxy)benzamide], for which the Ki was under 0.01 nM.

Consider `CN1CCC(COc2ccc(S(=O)(=O)NC(=O)c3ccc(N4CCN(CC5=C(c6ccc(Cl)cc6)CC(C)(C)CC5)CC4)cc3Oc3cnc4[nH]ccc4c3)cc2[N+](=O)[O-])CC1` [Example 48, 4-(4-{[2-(4-chlorophenyl)-4,4-dimethylcyclohex-1-en-1-yl]methyl}piperazin-1-yl)-N-({4-[(1-methylpiperidin-4-yl)methoxy]-3-nitrophenyl}sulfonyl)-2-(1H-pyrrolo[2,3-b]pyridin-5-yloxy)benzamide], for which the Ki is under 0.01 nM.

`CC1(C)CCC(CN2CCN(c3ccc(C(=O)NS(=O)(=O)c4cnc(OCC5COCCO5)c(C#N)c4)c(Oc4cnc5[nH]ccc5c4)c3)CC2)=C(c2ccc(Cl)cc2)C1` (centres unmarked) [Example 49, 4-(4-{[2-(4-chlorophenyl)-4,4-dimethylcyclohex-1-en-1-yl]methyl}piperazin-1-yl)-N-{[5-cyano-6-(1,4-dioxan-2-ylmethoxy)pyridin-3-yl]sulfonyl}-2-(1H-pyrrolo[2,3-b]pyridin-5-yloxy)benzamide]: the Ki was 0.074 nM.

Consider `CC1(C)CCC(CN2CCN(c3ccc(C(=O)NS(=O)(=O)c4cnc(OCC5COCCO5)c(Br)c4)c(Oc4cnc5[nH]ccc5c4)c3)CC2)=C(c2ccc(Cl)cc2)C1` (centres unmarked) [Example 50, N-{[5-bromo-6-(1,4-dioxan-2-ylmethoxy)pyridin-3-yl]sulfonyl}-4-(4-{[2-(4-chlorophenyl)-4,4-dimethylcyclohex-1-en-1-yl]methyl}piperazin-1-yl)-2-(1H-pyrrolo[2,3-b]pyridin-5-yloxy)benzamide], for which the Ki was found to be 0.021 nM.

As for `CC1(C)CCC(CN2CCN(c3ccc(C(=O)NS(=O)(=O)c4ccc(OCC5CCOC(C)(C)C5)c([N+](=O)[O-])c4)c(Oc4cnc5[nH]ccc5c4)c3)CC2)=C(c2ccc(Cl)cc2)C1` (centres unmarked) [Example 51, 4-(4-{[2-(4-chlorophenyl)-4,4-dimethylcyclohex-1-en-1-yl]methyl}piperazin-1-yl)-N-({4-[(2,2-dimethyltetrahydro-2H-pyran-4-yl)methoxy]-3-nitrophenyl}sulfonyl)-2-(1H-pyrrolo[2,3-b]pyridin-5-yloxy)benzamide], the Ki is under 0.01 nM.

As to `CC1(C)CCC(CN2CCN(c3ccc(C(=O)NS(=O)(=O)c4cc(Cl)c(NCC5CCOCC5)c(C#N)c4)c(Oc4cnc5[nH]ccc5c4)c3)CC2)=C(c2ccc(Cl)cc2)C1` [Example 52, N-({3-chloro-5-cyano-4-[(tetrahydro-2H-pyran-4-ylmethyl)amino]phenyl}sulfonyl)-4-(4-{[2-(4-chlorophenyl)-4,4-dimethylcyclohex-1-en-1-yl]methyl}piperazin-1-yl)-2-(1H-pyrrolo[2,3-b]pyridin-5-yloxy)benzamide], the Ki turned out to be 0.114 nM.

Turning to `CC(=O)N1CCC(Nc2ccc(S(=O)(=O)NC(=O)c3ccc(N4CCN(CC5=C(c6ccc(Cl)cc6)CC(C)(C)CC5)CC4)cc3Oc3cnc4[nH]ccc4c3)cc2[N+](=O)[O-])CC1` [Example 53, N-({4-[(1-acetylpiperidin-4-yl)amino]-3-nitrophenyl}sulfonyl)-4-(4-{[2-(4-chlorophenyl)-4,4-dimethylcyclohex-1-en-1-yl]methyl}piperazin-1-yl)-2-(1H-pyrrolo[2,3-b]pyridin-5-yloxy)benzamide], the Ki was under 0.01 nM.

`CC1(C)CCC(CN2CCN(c3ccc(C(=O)NS(=O)(=O)c4cc(F)c(NCC5CCOCC5)cc4Cl)c(Oc4cnc5[nH]ccc5c4)c3)CC2)=C(c2ccc(Cl)cc2)C1` [Example 54, N-({2-chloro-5-fluoro-4-[(tetrahydro-2H-pyran-4-ylmethyl)amino]phenyl}sulfonyl)-4-(4-{[2-(4-chlorophenyl)-4,4-dimethylcyclohex-1-en-1-yl]methyl}piperazin-1-yl)-2-(1H-pyrrolo[2,3-b]pyridin-5-yloxy)benzamide]: the Ki worked out at 2.07 nM.

Turning to `CC1(C)CCC(CN2CCN(c3ccc(C(=O)NS(=O)(=O)c4ccc(NCCCN5CCOCC5)c([N+](=O)[O-])c4)c(Oc4cnc5[nH]ccc5c4)c3)CC2)=C(c2ccc(Cl)cc2)C1` [Example 55, 4-(4-{[2-(4-chlorophenyl)-4,4-dimethylcyclohex-1-en-1-yl]methyl}piperazin-1-yl)-N-({4-[(3-morpholin-4-ylpropyl)amino]-3-nitrophenyl}sulfonyl)-2-(1H-pyrrolo[2,3-b]pyridin-5-yloxy)benzamide], the Ki was under 0.01 nM.

Turning to `CC1(C)CCC(CN2CCN(c3ccc(C(=O)NS(=O)(=O)c4cnc(OCC5(F)CCOCC5)c(C#N)c4)c(Oc4cnc5[nH]ccc5c4)c3)CC2)=C(c2ccc(Cl)cc2)C1` [Example 56, 4-(4-{[2-(4-chlorophenyl)-4,4-dimethylcyclohex-1-en-1-yl]methyl}piperazin-1-yl)-N-({5-cyano-6-[(4-fluorotetrahydro-2H-pyran-4-yl)methoxy]pyridin-3-yl}sulfonyl)-2-(1H-pyrrolo[2,3-b]pyridin-5-yloxy)benzamide], the Ki came out at 0.037 nM.

Turning to `CC1(C)CCC(CN2CCN(c3ccc(C(=O)NS(=O)(=O)c4cnc(OCCN5CCOCC5)c(C#N)c4)c(Oc4cnc5[nH]ccc5c4)c3)CC2)=C(c2ccc(Cl)cc2)C1` [Example 57, 4-(4-{[2-(4-chlorophenyl)-4,4-dimethylcyclohex-1-en-1-yl]methyl}piperazin-1-yl)-N-{[5-cyano-6-(2-morpholin-4-ylethoxy)pyridin-3-yl]sulfonyl}-2-(1H-pyrrolo[2,3-b]pyridin-5-yloxy)benzamide], the Ki came out at 0.063 nM.

As to `COCCOCCS(=O)(=O)c1ccc(S(=O)(=O)NC(=O)c2ccc(N3CCN(CC4=C(c5ccc(Cl)cc5)CC(C)(C)CC4)CC3)cc2Oc2cnc3[nH]ccc3c2)cc1Cl` [Example 58, N-[(3-chloro-4-{[2-(2-methoxyethoxy)ethyl]sulfonyl}phenyl)sulfonyl]-4-(4-{[2-(4-chlorophenyl)-4,4-dimethylcyclohex-1-en-1-yl]methyl}piperazin-1-yl)-2-(1H-pyrrolo[2,3-b]pyridin-5-yloxy)benzamide], the Ki was under 0.01 nM.

The values are drawn from patent US8580794B2 (AbbVie Inc., priority 2009, dated 2013).
